Measured values: patent publication US20120157396A1, “PYRAZINAMIDE FOR IMMUNOSTIMULATION AND THE TREATMENT OF LEISHMANIASES” (priority 2009, published 2012)
“And” between values parts separate entries of the source, which are not always exact repeats. Equal values may be shown once. Read-outs that look alike come from different tables or passages of the source.

Columns and labels:
L. major promastigotes = assay: L. major promastigote drug treatment, parasite survival after 48 h; assay type: cell-based; settings: 48 h, promastigote
Protocol: The effect of PZA was first investigated with promastigotes of L. major. PZA was diluted in medium and added to cultures. After 48 h, parasite multiplication was determined by counting parasites in culture. […] Incubation of L. major with 1 μg/ml amphotericin B (as a positive control) caused 100% mortality of promastigotes and 90% of amastigotes.
Mid-log phase (day 3 of culture) L. major promastigotes were employed. Parasite concentration was adjusted to 10^6 promastigotes/ml and seeded into 96-well plates in a volume of 100 μl (final concentration, 10^5 promastigotes/well). PZA was tested in triplicate in a concentration gradient from 1,000-0.5 μg/ml and added to the wells containing the parasite in a volume of 100 μl. A negative control was included with three wells containing only parasites and medium. The positive control consisted of amphotericin B (1 μg/ml). This concentration was previously employed by us because this concentration is equivalent to drug concentrations achieved in human plasma. After 48 h of incubation at 26° C., 10 μL of each well was diluted in 90 μL of the vital colorant (trypan blue in PBS) and the parasites were quantified in a Neubauer chamber. Data was normalized as percentage of survival compared to untreated controls. The Lethal Dose 50 (LD50) was extrapolated from the graph as the concentration of the products that inhibited the parasitic growth at 50% of the values of the negative control.

L. major amastigotes = L. major amastigotes within J774 cells, parasite survival; assay type: cell-based; settings: for MIC50: Leishmania major
Protocol: To distinguish between leishmaniostatic and leishmanicidal effects, a time course survival curve was generated for J774 cultures infected with L. major.
Amastigotes were generated by infecting J774 murine macrophages. Infections were carried after seeding cells in 8-well Labtek chambers (Thermo Physic Scientific, Rochester N.Y.) at a concentration of 5×10^4 cells/well. To avoid multiplication, cells were incubated with mitomycin C at a concentration of 0.8 μg/ml for 16 h. Infective-stage promastigotes (metacyclics) of L. major were isolated from stationary cultures (4-5 day-old) by Ficoll enrichment, added to macrophage cultures (5 promastigotes: 1 cell) and kept overnight at 37° C. in the presence of 5% CO2 and DMEM with 10% FCS. Sixteen hours later, non-internalized promastigotes were then washed and replaced by culture medium containing the drug. Forty-eight hours later, wells were detached from the slides, stained with Diff-Quick (Dade Behring, Newark, Del.) and counted under light microscope. Parasite burden was determined by observation under light microscopy (1000×) as the number of amastigotes per one hundred J774 cells. Percentage of survival of amastigotes and MIC50 were calculated as above.

uninfected J774 cells = assay type: cell-based; settings: 48 h; for percentage of survival compared to untreated control: mouse
Protocol: The potential cytotoxicity of PZA toward the mammalian cell line was determined by co-incubation of PZA with uninfected J774 cells for 48 h (10^4 cells/well) in 96-well culture plates. […] At 200 μg/ml, the compound started to show signs of toxicity, resulting in mortality of 25% of the cell monolayer. […] The control drug amphotericin B caused 5% mortality of the cell monolayer at the concentration tested (1 μg/ml).
J774 cell viability following incubation with PZA was also determined. Cells were seeded onto 8-well Labtek chambers as above and incubated with different concentrations of PZA (up to 1 mg/ml) for 48 h, stained with Diff-Quick and counted under light microscope. The percentage of viable cells was determined after quantifying the number of cells present per field (in 25 fields, ca. 500 cells). Percentage of survival and MIC50 were calculated as above.

L. major = assay type: in vivo, C57BL/6 mice
Protocol: Mouse Model of CL. To assess the in vivo efficacy of PZA in a relevant in vivo model of cutaneous leishmaniasis, C57BL/6 mice were intradermally infected with 5×10^5 L. major parasites per ear (n=6 mice, 12 ears). One day after infection, mice were treated orally with PZA at several concentrations (900-150 mg/kg) for four weeks, five days a week. […] Parasite burden in ears was determined at 5 weeks post infection in all experimental groups.
Mice (n=6) were anesthetized with isoflurane (Abbott Laboratories, Chicago, Ill.) and vaccinated intradermally in both ears with 5×10^5 L. major promastigotes in a volume of 10 μl using a 27½ G needle. PZA was diluted in water and administered by oral gavage in a 0.2 ml volume. A control group was treated with water containing DMSO (3.8%). The timetable for the experiment was as follows: day 0, infection; days 1-5, 8-12, 15-19 and 22-26, drug administration, and day 70, sacrifice. Lesion size was monitored 1-2 times per week by measuring the lesion diameter with a vernier caliper. Mice were sacrificed by CO2 inhalation.
Parasite loads in the ears were determined as previously described. Briefly, the ventral and dorsal sheets of the infected ears were separated and deposited in RPMI containing 100 U/ml penicillin/100 μg/ml streptomycin and Liberase CI enzyme blend (Boehringer Mannheim, 0.5 mg/ml). Ears were incubated for 60 min at 37° C. The sheets were dissociated using a handheld tissue homogenizer. The homogenates were filtered using a 70 μm an cell strainer (BD Falcon, San Jose, Calif.) and serially diluted in a 96-well flat bottom microtiter plate containing biphasic medium prepared using 50 μl NNN medium containing 20% of defibrinated rabbit blood overlaid with 100 μl medium 199. The number of viable parasites in each ear was estimated from the highest dilution at which promastigotes could be grown out after 7 days of incubation at 26° C.

Leishmania = assay: J774 cells infected with old- and new-world Leishmania species, 48 hr post treatment; assay type: cell-based
Description: FIG. 8. Effect of PZA on J774 cells infected with Leishmania 48 hr post treatment. Data expressed as % survival compared to untreated control (100% survival). Mean±SD of 3 independent determinations.
FIG. 9. A. Effect of 5-Chloro PZA on J774 cells infected with Leishmania, 48 hr post treatment. Data expressed as % survival compared to untreated control (100% survival). Mean±SD of 3 independent determinations. […] B. Cytokine IL-2 production—5-Chloro PZA stimulated 2× more proinflammatory cytokines than PZA, even in Leishmania-infected macrophages (similar results with IFNγ, TNFα, NO).

NC(=O)c1cnccn1 [PZA, pyrazinamide]
MIC50 (L. major promastigotes; Leishmania major): 10 µM and 16.2 µg/mL | percentage of survival compared to untreated control (L. major promastigotes; PZA 1 μg/ml): 88 ± 18% | percentage of survival compared to untreated control (L. major promastigotes; PZA 12.5 μg/ml): 50 ± 18% | percentage of survival compared to untreated control (L. major promastigotes; PZA 50 μg/ml): 38 ± 14% | percentage of survival compared to untreated control (L. major promastigotes; PZA 200 μg/ml): 20 ± 10% | percentage of survival compared to untreated control (L. major promastigotes; PZA 1000 μg/ml): 10 ± 12% | increase in MIC50 of amastigotes versus promastigotes (L. major amastigotes; 48 hours post infection): 10 fold | MIC50 (L. major amastigotes; 48 h, amastigote in J774, 48 h, read-out: MIC50): 10.2 µg/mL | MIC50 (L. major amastigotes; L. major amastigotes within J774 cells (Table Ia), read-out: MIC50 for PZA analogs): 9.5 µM | percentage of survival compared to untreated control (L. major amastigotes; amastigote in J774, PZA 1 μg/ml, 48 h): 89 ± 12% | percentage of survival compared to untreated control (L. major amastigotes; amastigote in J774, PZA 12.5 μg/ml, 48 h): 47 ± 12% | percentage of survival compared to untreated control (L. major amastigotes; amastigote in J774, PZA 100 μg/ml, 48 h): 23 ± 10% | percentage of survival compared to untreated control (L. major amastigotes; amastigote in J774, PZA 1000 μg/ml, 48 h): 20 ± 15% | mortality of the cell monolayer (uninfected J774 cells; PZA 200 μg/ml): 25% | mortality of the macrophages (uninfected J774 cells; PZA 1 mg/ml): 100% | percentage of survival compared to untreated control (uninfected J774 cells; 1 μg/ml): 100 ± 11% | percentage of survival compared to untreated control (uninfected J774 cells; 12.5 μg/ml): 100 ± 10% | percentage of survival compared to untreated control (uninfected J774 cells; 50 μg/ml): 100 ± 12% | percentage of survival compared to untreated control (uninfected J774 cells; 100 μg/ml): 100 ± 15% | percentage of survival compared to untreated control (uninfected J774 cells; 200 μg/ml): 85 ± 12% | percentage of survival compared to untreated control (uninfected J774 cells; 1000 μg/ml): 0% | parasite burden in ears after healing (L. major; 12 weeks post infection): comparable among all experimental groups | average lesion size compared with untreated mice (L. major; PZA oral 900-150 mg/kg, four weeks, five days a week, all time points): significant (P=0.0001) reduction of the average lesion size | decrease of parasite burden in infected ears compared to untreated control (L. major; PZA oral, week 6 post infection): 100 fold | body weight of experimental animals (L. major; mouse, in vivo): no significant differences in body weight | killing of Leishmania species (Leishmania; J774 cells infected with Leishmania, 48 hr post treatment (FIG. 8)): killed old-world and new-world VL leishmanial species

NC(=O)c1cnc(Cl)cn1 [5-Cl PZA, 5-chloro pyrazinamide]
MIC50 reduced relative to PZA (L. major amastigotes; L. major amastigotes within J774 cells): 5 fold | MIC50 for PZA analogs (L. major amastigotes; L. major amastigotes within J774 cells (Table Ia)): 2.1 μM | average lesion size compared to untreated controls (L. major; 5-Cl PZA oral, 150 mg/kg): significant reduction in average lesion size | activity at killing leishmanial species relative to PZA (Leishmania; old- and new-world leishmanial species in J774 cells): 10 fold | MIC (Leishmania; variety of old- and new-world leishmanial species in J774 cells, 48 hr): 1 to 13 µM
